Source: patent US5495032A, “Process for producing 7-(substituted)-8-(substituted-9-[(substituted glycyl)amido]-6-demethyl-6-deoxytetracyclines” (priority 1994, dated 1996)
Where a name gives a salt, the structure may show the parent alone. Read-outs that look alike come from different tables or passages of the source.

Tests used:
Type in all cases: cell-based
[1] = tested on: tetracycline resistant strains containing the tetM resistance determinant; experiment: in vitro antibacterial evaluation, tetM strains; details: S. aureus UBMS 88-5, 90-1 and 90-2, E. coli UBMS 89-1 and 90-4
susceptible strains = experiment: in vitro antibacterial evaluation, susceptible strains; details: vs minocycline
E. coli UBMS 88-1 Tet B = experiment: microbe, parasite or virus in culture; details: 18 hours at 35° C.
[2] = tested on: E. coli MC 4100 Tet sens.; experiment: MIC, agar dilution method; details: 18 hours at 35° C.
E. coli PRP1 Tet A = experiment: microbe, parasite or virus in culture; details: 18 hours at 35° C.
[3] = tested on: E. coli MC 4100 TNIOC Tet B; experiment: microbe, parasite or virus in culture; details: 18 hours at 35° C.
E. coli J3272 Tet C = experiment: microbe, parasite or virus in culture
E. coli UBMS 89-1 Tet M = experiment: microbe, parasite or virus in culture; details: 18 hours at 35° C.
[4] = tested on: E. coli UBMS 89-2 Tet sens; experiment: MIC, agar dilution method; details: 18 hours at 35° C.
E. coli J2175 = experiment: MIC, agar dilution method; details: 18 hours at 35° C.
E. coli BAJ9003 IMP MUT = experiment: microbe, parasite or virus in culture; details: 18 hours at 35° C.
E. coli UBMS 90-4 Tet M = experiment: microbe, parasite or virus in culture; details: 18 hours at 35° C.
E. coli UBMS 90-5 sens = experiment: MIC, agar dilution method; details: 18 hours at 35° C.
E. coli #311 (MP) = experiment: MIC, agar dilution method; details: 18 hours at 35° C.
E. coli ATCC 25922 = experiment: MIC, agar dilution method
E. coli J3272 Tet D = experiment: microbe, parasite or virus in culture
S. mariescens FPOR 8733 = experiment: MIC, agar dilution method; details: 18 hours at 35° C.
[5] = tested on: X. maltophilia NEMC 87210; experiment: MIC, agar dilution method; details: 18 hours at 35° C.
[6] = tested on: Ps. acruginosa ATCC 27853; experiment: MIC, agar dilution method
S. aureus NEMC 8769 = experiment: MIC, agar dilution method
S. aureus UBMS 88-4 = experiment: MIC, agar dilution method
[7] = tested on: S. aureus UBMS 88-5 Tet M; experiment: microbe, parasite or virus in culture
[8] = tested on: S. aureus UBMS 88-7 Tet K; experiment: microbe, parasite or virus in culture; details: 18 hours at 35° C.
[9] = tested on: S. aureus UBMS 90-1 Tet M; experiment: microbe, parasite or virus in culture; details: 18 hours at 35° C.
S. aureus UBMS 90-3 = experiment: MIC, agar dilution method
[10] = tested on: S. aureus UBMS 90-2 Tet M; experiment: microbe, parasite or virus in culture; details: 18 hours at 35° C.
S. aureus IVES 2943 = experiment: MIC, agar dilution method
S. aureus ROSE (MP) = experiment: MIC, agar dilution method; details: 18 hours at 35° C.
S. aureus SMITH (MP) = experiment: MIC, agar dilution method; details: 18 hours at 35° C.
S. aureus IVES 1 983 = experiment: MIC, agar dilution method
S. aureus ATCC 29213 = experiment: MIC, agar dilution method; details: 18 hours at 35° C.
[11] = tested on: S. hemolyticus AVHAH 88-3; experiment: MIC, agar dilution method; details: 18 hours at 35° C.
Enterococcus 12201 = experiment: MIC, agar dilution method; details: 18 hours at 35° C.
E. faecalis ATCC 29212 = experiment: MIC, agar dilution method; details: 18 hours at 35° C.
[12] = Escherichia coli, UBMS881TETB, 18 h
[13] = Escherichia coli, read-out: MIC
[14] = Escherichia coli, PRP1TETA, 18 h
[15] = Escherichia coli, J3272TETC, 18 h
[16] = Escherichia coli, UBMS891TETM, 18 h
[17] = Escherichia coli, UBMS892TETSENS, 18 h, read-out: MIC
[18] = Escherichia coli, BAJ9003IMPMUT, 18 h
[19] = Escherichia coli, UBMS904TETM, 18 h
[20] = Escherichia coli, UBMS905SENS, read-out: MIC
[21] = Escherichia coli, ATCC25922, 18 hours at 35° C., read-out: MIC
[22] = Escherichia coli, J3272TETD, 18 h
[23] = Stenotrophomonas maltophilia, NEMC87210, 18 h
[24] = Staphylococcus aureus, NEMC8769, 18 h
[25] = Staphylococcus aureus, UBMS884, 18 hours at 35° C., read-out: MIC
[26] = Staphylococcus aureus, UBMS885TETM, 18 h
[27] = Staphylococcus aureus, UBMS887TETK, 18 h
[28] = Staphylococcus aureus, UBMS901TETM, 18 h
[29] = Staphylococcus aureus, UBMS903, 18 h
[30] = Staphylococcus aureus, UBMS902TETM, 18 h
[31] = Staphylococcus aureus, read-out: MIC
[32] = Staphylococcus aureus, ATCC29213, 18 h
[33] = Streptococcus pyogenes, AVHAH883, 18 h
[34] = Enterococcus faecalis, ATCC29212, 18 h

CN(C)CC(=O)Nc1c(Cl)cc2c(c1O)C(=O)C1=C(O)[C@]3(O)C(=O)C(C(N)=O)=C(O)[C@@H](N(C)C)C3CC1C2 (some centres unmarked) [8-chloro-9-(N,N-dimethylglycylamido)-6-demethyl-6-deoxytetracycline]
in vitro activity against tetracycline resistant strains containing the tetM resistance determinant [1]: good in vitro activity
effectiveness against susceptible strains compared with minocycline (susceptible strains): equally as effective as minocycline

CN(C)C1C(O)=C(C(N)=O)C(=O)C2(O)C(O)=C3C(=O)c4c(cc(Cl)c(NC(=O)CNCC5CC5)c4O)CC3CC12.Cl.Cl (stereo not drawn) [G, [4S-(4α,12aα)]-8-Chloro-9-[[(cyclopropylmethylamino)acetyl]amino]-4-(dimethylamino)-1,4,4a,5,5a,6,11,12a-octahydro-3,10,12,12a-tetrahydroxy-1,11-dioxo-2-naphthacenecarboxamide dihydrochloride]
MIC (E. coli UBMS 88-1 Tet B): 1 µg/mL
MIC [2]: 0.25 µg/mL
MIC (E. coli PRP1 Tet A): 4 µg/mL
MIC [3]: 1 µg/mL
MIC (E. coli J3272 Tet C; E. coli J3272 Tet C, 18 hours at 35° C.): 1 µg/mL
MIC (E. coli UBMS 89-1 Tet M): 0.5 µg/mL
MIC [4]: 1 µg/mL
MIC (E. coli J2175): 1 µg/mL
MIC (E. coli BAJ9003 IMP MUT): 0.12 µg/mL
MIC (E. coli UBMS 90-4 Tet M): 1 µg/mL
MIC (E. coli UBMS 90-5 sens): 1 µg/mL
MIC (E. coli #311 (MP)): 1 µg/mL
MIC (E. coli ATCC 25922; 18 hours at 35° C.): 1 µg/mL
MIC (E. coli J3272 Tet D; E. coli J3272 Tet D, 18 hours at 35° C.): 1 µg/mL
MIC (S. mariescens FPOR 8733): 8 µg/mL
MIC [5]: 4 µg/mL
MIC ([6]; Ps. acruginosa ATCC 27853, 18 hours at 35° C.): 32 µg/mL
MIC (S. aureus NEMC 8769; S. aureus NEMC 8769, 18 hours at 35° C.): 0.5 µg/mL
MIC (S. aureus UBMS 88-4; 18 hours at 35° C.): 0.5 µg/mL
MIC ([7]; S. aureus UBMS 88-5 Tet M, 18 hours at 35° C.): 0.5 µg/mL
MIC [8]: 8 µg/mL
MIC [9]: 2 µg/mL
MIC (S. aureus UBMS 90-3; S. aureus UBMS 90-3, 18 hours at 35° C.): 0.12 µg/mL
MIC [10]: 0.5 µg/mL
MIC (S. aureus IVES 2943; S. aureus IVES 2943, 18 hours at 35° C.): 16 µg/mL
MIC (S. aureus ROSE (MP)): 32 µg/mL
MIC (S. aureus SMITH (MP)): 0.5 µg/mL
MIC (S. aureus IVES 1 983; S. aureus IVES 1 983, 18 hours at 35° C.): 16 µg/mL
MIC (S. aureus ATCC 29213): 0.25 µg/mL
MIC [11]: 8 µg/mL
MIC (Enterococcus 12201): 0.25 µg/mL
MIC (E. faecalis ATCC 29212): 0.25 µg/mL

CCCCCNCC(=O)Nc1c(Cl)cc2c(c1O)C(=O)C1=C(O)[C@]3(O)C(=O)C(C(N)=O)=C(O)[C@@H](N(C)C)C3CC1C2 (stereo partly drawn) [H, [4S-(4α,12aα)]-8-Chloro-4-(dimethylamino)-1,4,4a,5,5a,6,11,12a-octahydro-3, 10,12,12a-tetrahydroxy-1,11-dioxo-9-[[(pentylamino)acetyl]amino]-2-naphthacenecarboxamide dihydrochloride]
MIC (E. coli UBMS 88-1 Tet B; [12]): 2 µg/mL
MIC [2, 13]: 0.25 µg/mL
MIC (E. coli PRP1 Tet A; [14]): 2 µg/mL
MIC ([3]; Escherichia coli, 18 h): 2 µg/mL
MIC (E. coli J3272 Tet C; [15]): 2 µg/mL
MIC (E. coli UBMS 89-1 Tet M; [16]): 0.5 µg/mL
MIC [4, 17]: 2 µg/mL
MIC (E. coli J2175; [13]): 2 µg/mL
MIC (E. coli BAJ9003 IMP MUT; [18]): 0.25 µg/mL
MIC (E. coli UBMS 90-4 Tet M; [19]): 2 µg/mL
MIC (E. coli UBMS 90-5 sens; [20]): 2 µg/mL
MIC (E. coli #311 (MP); [13]): 2 µg/mL
MIC (E. coli ATCC 25922; [21]): 2 µg/mL
MIC (E. coli J3272 Tet D; [22]): 1 µg/mL
MIC (S. mariescens FPOR 8733; 18 h): 16 µg/mL
MIC [5, 23]: 4 µg/mL
MIC ([6]; Ps. acruginosa ATCC 27853, 18 hours at 35° C., read-out: MIC): > 32 µg/mL
MIC (S. aureus NEMC 8769; [24]): 0.5 µg/mL
MIC (S. aureus UBMS 88-4; [25]): 0.5 µg/mL
MIC [7, 26]: 1 µg/mL
MIC [8, 27]: 4 µg/mL
MIC [9, 28]: 2 µg/mL
MIC (S. aureus UBMS 90-3; [29]): 0.25 µg/mL
MIC [10, 30]: 0.25 µg/mL
MIC (S. aureus IVES 2943; Staphylococcus aureus, IVES2943, 18 h): 8 µg/mL
MIC (S. aureus ROSE (MP); Staphylococcus aureus, 18 h): 8 µg/mL
MIC (S. aureus SMITH (MP); [31]): 0.5 µg/mL
MIC (S. aureus IVES 1 983; Staphylococcus aureus, IVES1983, 18 h): 4 µg/mL
MIC (S. aureus ATCC 29213; [32]): 0.5 µg/mL
MIC [11, 33]: 4 µg/mL
MIC (Enterococcus 12201; Enterococcus, 12201, 18 h): 0.25 µg/mL
MIC (E. faecalis ATCC 29212; [34]): 0.12 µg/mL

CNCC(=O)Nc1c(Cl)cc2c(c1O)C(=O)C1=C(O)[C@]3(O)C(=O)C(C(N)=O)=C(O)[C@@H](N(C)C)C3CC1C2 (stereo partly drawn) [I, [4S-(4α,12aα)]-8-Chloro-4-(dimethylamino)-1,4,4a,5,5a,6,11,12a-octahydro-3, 10,12,12a-tetrahydroxy-1,11-dioxo-9-[[(methylamino)acetyl]amino]-2-naphthacenecarboxamide dihydrochloride]
MIC (E. coli UBMS 88-1 Tet B; [12]): 1 µg/mL
MIC [2, 13]: 0.25 µg/mL
MIC (E. coli PRP1 Tet A; [14]): 16 µg/mL
MIC ([3]; Escherichia coli, 18 h): 1 µg/mL
MIC (E. coli J3272 Tet C; [15]): 16 µg/mL
MIC (E. coli UBMS 89-1 Tet M; [16]): 2 µg/mL
MIC [4, 17]: 2 µg/mL
MIC (E. coli J2175; [13]): 1 µg/mL
MIC (E. coli BAJ9003 IMP MUT; [18]): 0.25 µg/mL
MIC (E. coli UBMS 90-4 Tet M; [19]): 1 µg/mL
MIC (E. coli UBMS 90-5 sens; [20]): 1 µg/mL
MIC (E. coli #311 (MP); [13]): 2 µg/mL
MIC (E. coli ATCC 25922; [21]): 1 µg/mL
MIC (E. coli J3272 Tet D; [22]): 1 µg/mL
MIC (S. mariescens FPOR 8733; 18 h): 16 µg/mL
MIC [5, 23]: 16 µg/mL
MIC ([6]; 18 h): 16 µg/mL
MIC (S. aureus NEMC 8769; [24]): 0.5 µg/mL
MIC (S. aureus UBMS 88-4; [25]): 0.5 µg/mL
MIC [7, 26]: 0.5 µg/mL
MIC [8, 27]: > 32 µg/mL
MIC [9, 28]: 0.5 µg/mL
MIC (S. aureus UBMS 90-3; [29]): 0.5 µg/mL
MIC [10, 30]: 0.5 µg/mL
MIC (S. aureus IVES 2943; Staphylococcus aureus, IVES2943, S. aureus IVES 2943, 18 hours at 35° C., read-out: MIC): > 32 µg/mL
MIC (S. aureus ROSE (MP); [31]): > 32 µg/mL
MIC (S. aureus SMITH (MP); [31]): 0.5 µg/mL
MIC (S. aureus IVES 1 983; Staphylococcus aureus, IVES1983, S. aureus IVES 1 983, 18 hours at 35° C., read-out: MIC): > 32 µg/mL
MIC (S. aureus ATCC 29213; [32]): 0.5 µg/mL
MIC [11, 33]: 2 µg/mL
MIC (Enterococcus 12201; Enterococcus, 12201, 18 h): 0.5 µg/mL
MIC (E. faecalis ATCC 29212; [34]): 0.25 µg/mL
